Patent publication US9034960B2, “Antidrift composition” (Momentive Performance Materials Inc., priority 2012, dated 2015)

Experiments:
[1] = Spreading/wetting: diameter of a 10 microliter drop on polystyrene dish; assay type: physicochemical; conditions: Table 3; aqueous herbicidal spray composition
Method: The spreading ability of the various superspreaders utilized herein was determined by depositing a single drop (10 microliters) of solution onto a clean, flat polystyrene dish. The polystyrene surfaces were cleaned by rinsing with isopropanol and then with deionized water. The dishes were then dried with dry nitrogen gas. The diameters of the resulting drops were then measured. Each solution was tested 2 to 4 times and the average diameter was calculated.

[2] = system: velvetleaf; test: Herbicidal performance of glyphosate spray compositions sprayed on velvetleaf; assay type: in vivo; conditions: 1% glyphosate IPA salt
Method: Urea inclusion complexes containing PAM-PAA copolymer, sodium salt (PAM-PAA-Na) (Zetag 4100, BASF), both without and with Silicone A superspreader, were made from molten urea as was a comparison urea inclusion complex containing PAM and Silicone A. Aqueous herbicidal spray compositions were prepared containing 0.75% of these urea inclusion complexes and 1% glyphosate isopropylamine salt (“[…]”) herbicide and evaluated for reduction of drift, increased spreading and herbicidal performance when sprayed on velvetleaf.
A solution of 0.042% Silicone A and 1% glyphosate IPA salt (Example 26) was used as a control as was a plain 1% glyphosate IPA salt solution (Example 27).

CC(C)N.O=C(O)CNCP(=O)(O)O [Example 27, glyphosate isopropylamine salt]
Drop Spread Diameter [1]: 4.8 mm | % Control after 1 week ([2]; after 1 week): 25% | % Control after 2 weeks ([2]; after 2 weeks): 81%
